Measured values reported in ChEMBL document CHEMBL1158178, “Study on the binding interaction between carnitine optical isomer and bovine serum albumin” (Eur J Med Chem, 2008).

Key:
Albumin [1] = target: T1, Albumin (Bos taurus, UniProt P02769); test: Binding affinity to bovine serum albumin by fluorescence spectroscopy; type: ADME; settings: cattle, isolated protein
Albumin [2] = target: T1, Albumin; test: Binding affinity to bovine serum albumin by fluorescence spectroscopy in presence of Fe3+; type: ADME; settings: cattle, isolated protein

T1 sequence (P02769 whole entry): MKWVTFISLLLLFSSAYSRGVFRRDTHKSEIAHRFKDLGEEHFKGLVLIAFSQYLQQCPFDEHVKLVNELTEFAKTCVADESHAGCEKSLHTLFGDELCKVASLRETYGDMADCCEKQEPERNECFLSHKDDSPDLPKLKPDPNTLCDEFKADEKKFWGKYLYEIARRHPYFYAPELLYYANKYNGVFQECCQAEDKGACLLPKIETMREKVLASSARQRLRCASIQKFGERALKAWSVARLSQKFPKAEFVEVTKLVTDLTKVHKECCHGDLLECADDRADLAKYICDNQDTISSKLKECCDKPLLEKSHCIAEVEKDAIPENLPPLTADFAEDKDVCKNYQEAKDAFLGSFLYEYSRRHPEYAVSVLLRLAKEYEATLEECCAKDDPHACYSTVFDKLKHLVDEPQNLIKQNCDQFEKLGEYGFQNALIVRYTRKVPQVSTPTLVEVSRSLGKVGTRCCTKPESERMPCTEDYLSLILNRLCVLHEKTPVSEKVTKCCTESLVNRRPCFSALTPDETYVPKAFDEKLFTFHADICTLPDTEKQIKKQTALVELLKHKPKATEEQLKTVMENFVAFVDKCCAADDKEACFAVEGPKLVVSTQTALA

K (Albumin [1]) | K (Albumin [2]) | Compound
2.15 ×10⁴ L/mol | 3.18 ×10⁴ L/mol | C[N+](C)(C)C[C@@H](O)CC(=O)[O-] [D-CARNITINE]
2.27 ×10⁴ L/mol | 2.97 ×10⁴ L/mol | C[N+](C)(C)C[C@H](O)CC(=O)[O-] [LEVOCARNITINE]
